Data as given in PMC9380551 (Antimicrobial Agents and Chemotherapy, 2022).

System: SARS-CoV-2 Wuhan reference strain
Format: cell-based

Row | SMILES | comparative efficiency in inhibiting SARS-CoV-2 replication
1 | CC(C)c1nc(CN(C)C(=O)N[C@H](C(=O)N[C@@H](Cc2ccccc2)C[C@H](O)[C@H](Cc2ccccc2)NC(=O)OCc2cncs2)C(C)C)cs1 [ritonavir] | AB-00011778 was more efficient than the ritonavir molecule
2 | CCC(CC)COC(=O)[C@H](C)N[P@](=O)(OC[C@H]1O[C@@](C#N)(c2ccc3c(N)ncnn23)[C@H](O)[C@@H]1O)Oc1ccccc1 [remdesivir] | the most efficient molecule
